Experimental data: US20020037931A1, “Substituted nitrated catechols, their use in the treatment of some central and peripheral nervous system disorders and pharmaceutical compositions containing them” (priority 2000, published 2002)

Assays:
COMT [1] = assay: COMT activity (methylation of adrenaline to metanephrine) in rat liver homogenates; assay type: biochemical; details: rat liver homogenate; test compound 3 μM; means±SEM, n=4-8
COMT [2] = assay: COMT activity (methylation of adrenaline to metanephrine) in rat brain homogenates; assay type: biochemical; details: rat brain homogenate; test compound 100 nM; means±SEM, n=4-8
COMT [3] = target: T1, COMT (Homo sapiens, UniProt P21964); assay: COMT activity in intact SK-N-SH cell monolayers; assay type: cell-based; details: SK-N-SH cells; test compound 100 nM; means±SEM, n=4-8
T1 construct: COMT activity was evaluated in cell monolayers by the ability to methylate adrenaline; host or cells: SK-N-SH cells
T1 sequence (P21964 1-271): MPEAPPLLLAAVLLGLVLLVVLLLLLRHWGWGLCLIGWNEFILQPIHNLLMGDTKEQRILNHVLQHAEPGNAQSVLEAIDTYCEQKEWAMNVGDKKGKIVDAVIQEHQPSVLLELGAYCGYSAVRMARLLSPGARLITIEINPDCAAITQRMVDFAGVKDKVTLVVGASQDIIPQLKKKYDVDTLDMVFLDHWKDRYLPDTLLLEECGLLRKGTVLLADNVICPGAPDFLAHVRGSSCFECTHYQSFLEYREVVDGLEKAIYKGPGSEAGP

## COc1cc(C=C2CCc3cc(O)c(O)c([N+](=O)[O-])c3C2=O)cc([N+](=O)[O-])c1O [Compound 11, 6,7-Dihydroxy-2-(4-hydroxy-3-methoxy-5-nitro-benzylidene)-8-nitro-3,4-dihydro-2H-naphthalen-1-one]
COMT [1]
  COMT activity, Liver (% of control): 1.1 ± 0.3 % of control
COMT [2]
  COMT activity, Brain (% of control): 32 ± 2 % of control
COMT [3]
  COMT activity, SK-N-SH (% of control): 47 ± 2 % of control

## O=C1C(=Cc2ccc(O)c(O)c2)Cc2cc(O)c(O)c([N+](=O)[O-])c21 [Compound 12, 2-(3,4-dihydroxy-benzylidene)-5,6-dihydroxy-7-nitro-indan-1-one]
COMT [1]
  COMT activity, Liver (% of control): 0.6 ± 0.0 % of control
COMT [2]
  COMT activity, Brain (% of control): 18 ± 1 % of control
COMT [3]
  COMT activity, SK-N-SH (% of control): 34 ± 1 % of control

## CCOC(=O)Oc1ccc(C(=O)CCCc2ccccc2)c([N+](=O)[O-])c1OC(=O)OCC [Compound 51, Carbonic acid, 2-ethoxycarbonyloxy-3-nitro-4-(4-phenyl-butyryl)-phenyl ester ethyl ester]
COMT [1]
  COMT activity, Liver (% of control): 0.6 ± 0.3 % of control
COMT [2]
  COMT activity, Brain (% of control): 0 ± 0 % of control
COMT [3]
  COMT activity, SK-N-SH (% of control): 1 ± 0 % of control

## CN(C)c1ccc(C=C2Cc3cc(O)c(O)c([N+](=O)[O-])c3C2=O)cc1 [Compound 8, 2-(4-dimethylamino-benzylidene)-5,6-dihydroxy-7-nitro-indan-1-one]
COMT [1]
  COMT activity, Liver (% of control): 1.0 ± 0.1 % of control
COMT [2]
  COMT activity, Brain (% of control): 30 ± 4 % of control
COMT [3]
  COMT activity, SK-N-SH (% of control): 48 ± 3 % of control

## CCCC(=O)Oc1ccc(C(=O)CCCc2ccccc2)c([N+](=O)[O-])c1OC(C)=O [Compound 50, Acetic acid, 6-butyryloxy-2-nitro-3-(4-phenyl-butyryl)-phenyl ester]
COMT [1]
  COMT activity, Liver (% of control): 0.6 ± 0.5 % of control
COMT [2]
  COMT activity, Brain (% of control): 0 ± 0 % of control
COMT [3]
  COMT activity, SK-N-SH (% of control): 2 ± 1 % of control

## O=C(CCN1CCOCC1)c1ccc(O)c(O)c1[N+](=O)[O-] [Compound 26, 1-(3,4-dihydroxy-2-nitro-phenyl)-3-morpholin4-yl-propan-1-one]
COMT [1]
  COMT activity, Liver (% of control): 0.9 ± 0.1 % of control
COMT [2]
  COMT activity, Brain (% of control): 9 ± 0 % of control
COMT [3]
  COMT activity, SK-N-SH (% of control): 12 ± 1 % of control

## O=C(CN1CCOCC1)c1ccc(O)c(O)c1[N+](=O)[O-] [Compound 42, 1-(3,4-Dihydroxy-2-nitro-phenyl)-2-morpholin-4-yl-ethanone]
COMT [1]
  COMT activity, Liver (% of control): 0.8 ± 0.2 % of control
COMT [2]
  COMT activity, Brain (% of control): 13 ± 0 % of control
COMT [3]
  COMT activity, SK-N-SH (% of control): 27 ± 1 % of control

## O=C(CCc1ccccc1)c1ccc(O)c(O)c1[N+](=O)[O-] [Compound 14, 1-(3,4-Dihydroxy-2-nitro-phenyl)-3-phenyl-propan-1-one]
COMT [1]
  COMT activity, Liver (% of control): 0.3 ± 0.0 % of control
COMT [2]
  COMT activity, Brain (% of control): 5 ± 1 % of control
COMT [3]
  COMT activity, SK-N-SH (% of control): 5 ± 2 % of control

## COc1ccc(C=C2CCc3cc(O)c(O)c([N+](=O)[O-])c3C2=O)cc1OC [Compound 4, 2-(3,4-Dimethoxy-benzylidene)-6,7-dihydroxy-8-nitro-3,4-dihydro-2H-naphthalen-1-one]
COMT [1]
  COMT activity, Liver (% of control): 2.0 ± 1.0 % of control
COMT [2]
  COMT activity, Brain (% of control): 20 ± 2 % of control
COMT [3]
  COMT activity, SK-N-SH (% of control): 25 ± 1 % of control

## O=C1c2c(cc(O)c(O)c2[N+](=O)[O-])CC1CN1CCN(c2cccc(C(F)(F)F)c2)CC1 (stereo not drawn) [Compound 43, 5,6-Dihydroxy-7-nitro-2-[4-(3-trifluoromethyl-phenyl)-piperazin-1-ylmethyl]-indan-1-one]
COMT [1]
  COMT activity, Liver (% of control): 0.9 ± 0.2 % of control
COMT [2]
  COMT activity, Brain (% of control): 10 ± 1 % of control
COMT [3]
  COMT activity, SK-N-SH (% of control): 19 ± 7 % of control

## CCOC(=O)Oc1ccc(C(=O)c2ccccc2)c([N+](=O)[O-])c1OC(=O)OCC [Compound 21, Carbonic acid, 4-benzoyl-2-ethoxycarbonyloxy-3-nitro-phenyl ester ethyl ester]
COMT [1]
  COMT activity, Liver (% of control): 0.3 ± 0.2 % of control
COMT [2]
  COMT activity, Brain (% of control): 11 ± 1 % of control
COMT [3]
  COMT activity, SK-N-SH (% of control): 1 ± 1 % of control

## CC1CCN(CCC(=O)c2ccc(O)c(O)c2[N+](=O)[O-])CC1 [Compound 33, 1-(3,4-Dihydroxy-2-nitro-phenyl)-3-(4-methyl-piperidin-1-yl)-propan-1-one]
COMT [1]
  COMT activity, Liver (% of control): 2.2 ± 0.3 % of control
COMT [2]
  COMT activity, Brain (% of control): 6 ± 0 % of control
COMT [3]
  COMT activity, SK-N-SH (% of control): 14 ± 0 % of control

## CC1CC(C)CN(CCC(=O)c2ccc(O)c(O)c2[N+](=O)[O-])C1 (stereo not drawn) [Compound 35, 1-(3,4-Dihydroxy-2-nitro-phenyl)-3-(3,5-dimethyl-piperidin-1-yl)-propan-1-one]
COMT [1]
  COMT activity, Liver (% of control): 23. ± 0.3 % of control
COMT [2]
  COMT activity, Brain (% of control): 9 ± 0 % of control
COMT [3]
  COMT activity, SK-N-SH (% of control): 13 ± 1 % of control

## O=C1C(=Cc2cc(O)c(O)c([N+](=O)[O-])c2)Cc2cc(O)c(O)c([N+](=O)[O-])c21 [Compound 16, 2-(3,4-Dihydroxy-5-nitro-benzylidene)-5,6-dihydroxy-7-nitro-indan-1-one]
COMT [1]
  COMT activity, Liver (% of control): 2.0 ± 0.2 % of control
COMT [2]
  COMT activity, Brain (% of control): 20 ± 1 % of control
COMT [3]
  COMT activity, SK-N-SH (% of control): 92 ± 1 % of control

## O=C1c2c(cc(O)c(O)c2[N+](=O)[O-])CC1CN1CCCCC1 (stereo not drawn) [Compound 30, 5,6-Dihydroxy-7-nitro-2-piperidin-1-ylmethyl-indan-1-one]
COMT [1]
  COMT activity, Liver (% of control): 1.4 ± 0.1 % of control
COMT [2]
  COMT activity, Brain (% of control): 8 ± 0 % of control
COMT [3]
  COMT activity, SK-N-SH (% of control): 17 ± 1 % of control

## COc1ccc(N2CCN(CCC(=O)c3ccc(O)c(O)c3[N+](=O)[O-])CC2)cc1 [Compound 37, 1-(3,4-Dihydroxy-2-nitro-phenyl)-3-[4-(4-methoxy-phenyl)-piperazin-1-yl]-propan-1-one]
COMT [1]
  COMT activity, Liver (% of control): 1.7 ± 0.3 % of control
COMT [2]
  COMT activity, Brain (% of control): 6 ± 0 % of control
COMT [3]
  COMT activity, SK-N-SH (% of control): 6 ± 2 % of control

## O=C(CCN1CCN(c2cccc(C(F)(F)F)c2)CC1)c1ccc(O)c(O)c1[N+](=O)[O-] [Compound 38, 1-(3,4-Dihydroxy-2-nitro-phenyl)-3-[4-(3-trifluoromethyl-phenyl)-piperazin-1-yl]-propan-1-one]
COMT [1]
  COMT activity, Liver (% of control): 11.2 ± 1.5 % of control
COMT [2]
  COMT activity, Brain (% of control): 7 ± 0 % of control
COMT [3]
  COMT activity, SK-N-SH (% of control): 6 ± 1 % of control

## O=C(CCN1CCC(Cc2ccccc2)CC1)c1ccc(O)c(O)c1[N+](=O)[O-] [Compound 36, 3-(4-benzyl-piperidin-1-yl)-1-(3,4-Dihydroxy-2-nitro-phenyl)-propan-1-one]
COMT [1]
  COMT activity, Liver (% of control): 2.2 ± 0.4 % of control
COMT [2]
  COMT activity, Brain (% of control): 6 ± 0 % of control
COMT [3]
  COMT activity, SK-N-SH (% of control): 9 ± 2 % of control

## CCCC(=O)Oc1ccc(C(=O)Cc2ccccc2)c([N+](=O)[O-])c1OC(=O)CCC [Compound 47, Butyric acid, 6-butyryloxy-2-nitro-3-phenylacetyl-phenyl ester]
COMT [1]
  COMT activity, Liver (% of control): 0.6 ± 0.2 % of control
COMT [2]
  COMT activity, Brain (% of control): 0 ± 0 % of control
COMT [3]
  COMT activity, SK-N-SH (% of control): 1 ± 1 % of control

## CCOC(=O)Oc1cc(C(=O)c2ccccc2)c(C(=O)c2ccccc2)c([N+](=O)[O-])c1OC(=O)OCC [Compound 23, Carbonic Acid 4,5-Dibenzoyl-2-ethoxycarbonyloxy-3-nitro-phenyl Ester Ethyl Ester]
COMT [1]
  COMT activity, Liver (% of control): 2.5 ± 1.2 % of control
COMT [2]
  COMT activity, Brain (% of control): 10 ± 1 % of control
COMT [3]
  COMT activity, SK-N-SH (% of control): 24 ± 1 % of control

## CCCC(=O)Oc1ccc(C(=O)CCc2ccccc2)c([N+](=O)[O-])c1OC(=O)CCC [Compound 19, Butyric acid, 6-butyryloxy-2-nitro-3-(3-phenyl-propionyl)-phenyl ester]
COMT [1]
  COMT activity, Liver (% of control): 0.2 ± 0.1 % of control
COMT [2]
  COMT activity, Brain (% of control): 8 ± 1 % of control
COMT [3]
  COMT activity, SK-N-SH (% of control): 0 ± 0 % of control
